Reference: ChEMBL document CHEMBL2150936, “Anticancer activity of small amphipathic β²,²-amino acid derivatives” (Eur J Med Chem, 2012)

Test system: NCI-H23
Experiment: Cytotoxicity against human NCI-H23 cells after 4 hrs by MTT assay
Format: functional, cell-based
Conditions: NCI-H23, 4 h

## NCCNC(=O)C(CN)(Cc1ccc2ccccc2c1)Cc1ccc2ccccc2c1
  IC50: 3.09 µM
  TGI: 3.24 µM
read-out: LC50 (the source's name)
  CC50: 6.31 µM
